# Entries after “also recorded” stand apart in the source; their conditions may differ. Where two headings read alike, the source gives them in different places.
# Tests used:
# [1] = Pharmacokinetics alone and in combination, selumetinib + temsirolimus arm; type: in vivo, human; settings: human, plasma, iv, geometric mean (% CV); for AUC(0-t): read-out: AUC(0–8); for AUC(0–12): read-out: AUC(0–12); for Cmax: read-out: Cmax
# Description: PK parameters were derived using non-compartmental analysis. Cmax and tmax were determined by visual inspection of the plasma concentration-time profiles. AUC(0–12) was calculated by the linear trapezoidal rule. Where more than one maximum occurred, the reported value was assigned to the first occurrence.
# panel of other kinases = test system: panel of other kinases; design: method as in earlier work; settings: ref IB; cited from earlier work
# [2] = test system: SW620 human colorectal cancer xenograft; design: method as in earlier work; settings: ref IB, cited from earlier work
# [3] = test system: HCT-116 human colorectal cancer xenograft; design: method as in earlier work; settings: AZD6244 25 m/kg BD; docetaxel 15 mg/kg once weekly; ref IB; cited from earlier work
# [4] = test system: Calu-6 human non-small cell lung cancer xenograft; design: method as in earlier work; settings: AZD6244 3 mg/kg BD; AZD2171 […] QD; ref IB; cited from earlier work
# [5] = test system: Lovo colorectal cancer xenograft; design: method as in earlier work; settings: ref IB, cited from earlier work
# [6] = test system: cytochrome P450 (CYP)3A, 1A and 2C; design: method as in earlier work; settings: human hepatocytes, preliminary in vitro data; ref IB; cited from earlier work
# CYP1A2 = test system: CYP1A2; design: method as in earlier work; settings: at concentrations up to 50uM; ref IB; cited from earlier work
# CYP 2C8 = test system: CYP 2C8; design: method as in earlier work; settings: at concentrations up to 50uM; ref IB; cited from earlier work
# CYP 2C19 = test system: CYP 2C19; design: method as in earlier work; settings: at concentrations up to 50uM; ref IB; cited from earlier work
# CYP 2D6 = test system: CYP 2D6; design: method as in earlier work; settings: at concentrations up to 50uM; ref IB; cited from earlier work
# CYP2C9 = test system: CYP2C9; design: method as in earlier work; settings: weak direct inhibitor; ref IB; cited from earlier work
# expressed CYP isoforms = test system: expressed CYP isoforms; design: method as in earlier work; settings: ref IB; listed as AZD6244; cited from earlier work
# 3T3 = test system: 3T3; design: method as in earlier work; settings: 3T3 Neutral Red Uptake phototoxicity test; ref IB; cited from earlier work
# [7] = design: method as in earlier work; settings: AZD6244-related material, rat and mouse; ref IB; cited from earlier work
# [8] = design: method as in earlier work; settings: rat; ref IB; cited from earlier work
# [9] = design: method as in earlier work; settings: mouse; ref IB; cited from earlier work
# [10] = design: method as in earlier work; settings: human; ref IB; cited from earlier work
# [11] = design: method as in earlier work; settings: monkey; ref IB; cited from earlier work
# [12] = design: method as in earlier work; settings: Minipig; ref IB; cited from earlier work
# p-glycoprotein (PgP) = test system: p-glycoprotein (PgP); design: method as in earlier work; settings: ref IB; cited from earlier work
# [13] = test system: breast cancer resistance protein (BCRP); design: method as in earlier work; settings: ref IB; cited from earlier work
# [14] = design: method as in earlier work; settings: ref IB; cited from earlier work
# [15] = design: method as in earlier work; settings: predominantly via an aneugenic mode of action; ref IB; cited from earlier work
# [16] = design: method as in earlier work; settings: mice, at dose levels that do not induce maternal toxicity, preliminary; ref IB; cited from earlier work
# [17] = design: method as in earlier work; settings: mouse, rat and monkey; dosed as free-base or Hyd-Sulfate; ref IB; cited from earlier work
# [18] = design: method as in protocol D1532C00004; settings: protocol rationale for QD dosing; ref protocol D1532C00004; cited from earlier work
# [19] = design: method as in earlier work; settings: either formulation of AZD6244; ref IB; cited from earlier work
# [20] = cited from earlier work
# [21] = ref Study ARRY-0401, cited from earlier work
# [22] = Phase I safety/tolerability, DLT and MTD: selumetinib + erlotinib 100 mg orally QD in patients with advanced solid tumors
# [23] = dosed alone, selumetinib 50 mg cohort (N = 25), temsirolimus 25 mg IV
# [24] = dosed alone, selumetinib 75 mg cohort (N = 6), temsirolimus 25 mg IV
# [25] = dosed in combination, selumetinib 50 mg BID (N = 22) + temsirolimus 25 mg IV
# [26] = dosed in combination, selumetinib 75 mg BID (N = 5) + temsirolimus 25 mg IV
smiles,measurement,setting,value
Cn1cnc2c(F)c(Nc3ccc(Br)cc3Cl)c(C(=O)NOCCO)cc21 [Selumetinib],AUC(0-t),[1]; [23],1840 ng·h/mL
same,AUC(0–12),[1]; [23],2150 ng·h/mL
same,Cmax,[1]; [23],666 ng/mL
same,AUC(0-t),[1]; [24],2990 ng·h/mL
same,AUC(0–12),[1]; [24],3370 ng·h/mL
same,Cmax,[1]; [24],1240 ng/mL
same,AUC(0-t),[1]; [25],1840 ng·h/mL
same,AUC(0–12),[1]; [25],2130 ng·h/mL
same,Cmax,[1]; [25],676 ng/mL
same,AUC(0-t),[1]; [26],2520 ng·h/mL
same,AUC(0–12),[1]; [26],2940 ng·h/mL
same,Cmax,[1]; [26],887 ng/mL
same,activity against a panel of other kinases,panel of other kinases,"inactive, or only minimally active"
same,Tumor growth inhibition as a % of control,"[2]; AZD6244 25 mg/kg BD, irinotecan 25 mg/kg once weekly, docetaxel 15 mg/kg once weekly",74 % of control
same,Tumor growth inhibition as a % of control,"[2]; temozolamide experiment, usual monotherapy schedules, doses not given",58 % of control
same,Tumor growth inhibition as a % of control,[3],64.9 % of control
same,Tumor growth inhibition as a % of control,[4],48.8 % of control
same,Tumor growth inhibition as a % of control,"[5]; AZD6244 25 mg/kg BD, Iressa 75 mg/kg QD",40.2 % of control
same,Tumor growth inhibition as a % of control,"[5]; rapamycin experiment, usual monotherapy schedules, doses not given",39 % of control
same,"induction of cytochrome P450 (CYP)3A, 1A and 2C",[6],weak inducer
same,inhibition of CYP1A2,CYP1A2,no inhibition
same,inhibition of CYP2C8,CYP 2C8,no inhibition
same,inhibition of CYP2C19,CYP 2C19,no inhibition
same,inhibition of CYP2D6,CYP 2D6,no inhibition
same,IC50,CYP2C9,44.7 µM
same,CYP isoforms metabolizing AZD6244,expressed CYP isoforms,metabolized by CYP1A2; also recorded: also metabolized by CYP 2C19 and CYP 3A4
same,cytotoxicity in the presence of UV light,3T3,enhanced
same,binding to melanin,[7],no evidence of binding to melanin
same,penetration into the CNS,[7],minimal
same,Protein binding,[8],99.7%
same,Protein binding,[9],98.9%
same,Protein binding,[10],98.4%
same,Protein binding,[11],97.7%
same,Protein binding,[12],93.7%
same,interaction with p-glycoprotein (PgP),p-glycoprotein (PgP),substrate but not an inhibitor
same,interaction with breast cancer resistance protein (BCRP),[13],substrate but not an inhibitor
same,mutagenic or clastogenic potential in vitro,[14],no evidence of mutagenic or clastogenic potential
same,mouse micronucleus result,[15],increase in micronucleated immature erythrocytes (MIE)
same,reproductive toxicology,[16],adverse effects on embryofetal development and survival
same,accumulation on multiple dosing,[17],no/minimal accumulation
same,half-life,[18],~ 6 hours
same,QTc prolongation,[19],no signal for QTc prolongation
same,"maximum tolerated dose (MTD), monotherapy",[20]; first-in-human trial of selumetinib monotherapy,75 mg BID
same,recommended phase II monotherapy dose,[20]; in vivo,75 mg BID
same,time at which Cmax attained (median),[21]; post-dose,approximately 1 hour
same,"half-life (t½), median",[21]; terminal elimination phase,approximately 11 hours
same,protocol-defined MTD of selumetinib plus erlotinib (part A),"[22]; part A dose escalation, later not tolerated in part B",50 mg BID
same,selumetinib dose recommended for future phase II studies,[22]; plus erlotinib 100 mg QD,100 mg QD
same,MTD of selumetinib in combination with erlotinib,[22]; with erlotinib 100 mg QD,100 mg QD

# From article PMC5613062 (Investigational New Drugs, 2017)
